Where “and” joins values, the source holds several entries; their conditions need not be identical. Equal values may be shown once.
How the values were obtained:
Type in all cases: in vivo, Rabbit (New Zealand)
pupillary diameter = assay: Pupillary diameter measurement, rabbit paracentesis model; settings: 0.5% formulation
[1] = test system: iris and conjunctival vessels, anterior chamber; assay: Clinical evaluation by slit lamp (clinical score), rabbit paracentesis model; parameters: key to Clinical Score −180 min / Clinical Score −5 min / Clinical Score +115 min: 0=normal; 1=discrete dilatation of iris and conjunctival vessels; 2=moderate dilatation of iris and conjunctival vessels; 3=intense iridal hyperemia with flare in the anterior chamber; 4=intense iridal hyperemia with flare in the anterior chamber and presence of fibrinous exudates; settings: 0.5% formulation
[2] = test system: PGE2 in the aqueous humor; assay: Prostaglandin E2 (PGE2) measurement in aqueous humor, rabbit paracentesis model; settings: 0.5% formulation
Procedure: (§1) Each rabbit was placed in a restraint device and tagged with the alphanumeric code. The formulations were instilled (50 μl) into the conjunctival sac of both eyes 180, 120, 90 and 30 min before the first paracentesis; then 15, 30, 90 min after the first paracentesis. To perform the first paracentesis the animals were anaesthetized by intravenous injection of 5 mg/kg Zoletil® (Virbac; 2.5 mg/kg tiletamine HCl and 2.5 mg/kg zolazepam HCl) and one drop of local anesthetic (Novesina®, Novartis) was administered to the eye. Anterior chamber paracentesis was performed with a 26 G needle attached to a tuberculin syringe; the needle was introduced into the anterior chamber through the cornea, taking care not to damage the tissues. Two hours after the first paracentesis, the animals were sacrificed with 0.4 ml Tanax® (Intervet International B.V.) and the second paracentesis was performed. About 100 μl of aqueous humor were removed at the second paracentesis. Aqueous humor was immediately split in four aliquots and stored at −80° C. until analysis. Then both eyes were enucleated and the iris-ciliary body was carefully excised, placed in polypropylene tubes, and stored at −80° C. until analysis.
For the quantitative determination of PGE2 in the aqueous humor we used the PGE2 Immunoassay kit (R&D Systems; Cat. No. KGE004; Lot. No. 240010). Eleven microliters or 16 μl of aqueous humor were diluted to 110 μl or 160 μl with the calibrator diluent solution provided with the kit. One hundred microliters of samples and of standards were load into a 96-well plate and recorded in a plate layout. Samples were treated following the assay procedure described in the kit. A microplate reader (GDV, Italy; model DV 990 B/V6) set at 450 nm (wavelength correction at 540 nm) was used for making the calibration and analyzing the samples.
(§2) Pupillary diameter, PGE2, protein, PMN, and MPO were expressed as mean±SEM. Statistical analysis was performed using one way ANOVA followed by a Newman-Keuls post hoc test. Clinical score was expressed as % of eyes and the statistical analysis was performed using Kruskal-Wallis followed by a Dunn post hoc test. P<0.05 was considered statistically significant in both cases. Prism 4 software (GraphPad Software, Inc.) was used for the analysis and graphs.

[3] = test system: protein concentration in the aqueous humor; assay: Protein measurement in aqueous humor, rabbit paracentesis model; settings: 0.5% formulation, second paracentesis
Procedure: as §1
For protein concentration determination in the aqueous humor we used the Protein Quantification Kit (Fluka; Cat. No. 77371; Lot. No. 1303129). Five microliters of aqueous humor were diluted to 100 μl with water. Twenty microliters of samples and of standards were load into a 96-well plate and recorded in a plate layout. Samples were treated following the assay procedure described in the kit. A microplate reader (GDV, Italy; model DV 990 B/V6) set at 670 nm was used for making the calibration and analyzing the samples.
as §2

[4] = test system: leukocytes (PMN) in aqueous humor; assay: Leukocytes (PMN) measurement in aqueous humor, rabbit paracentesis model; settings: 0.5% formulation; second paracentesis; group mean
Procedure: as §1
For the determination of the number of leukocytes we used a haernocytometer (Improved Neubauer Chamber; Bright-line, Hausser Scientific) and a Polyvar 2 microscope (Reichert-Jung).
as §2

[5] = test system: MPO activity in iris-ciliary body; assay: Myeloperoxidase (MPO) activity in iris-ciliary body, rabbit paracentesis model
Procedure: as §1
The activity of MPO was measured as previously described by Williams et al.[5] The iris-ciliary bodies were carefully dried, weighed and immersed in 1 ml of hexa-decyl-trimethyl-ammonium bromide solution. Then, the samples were sonicated for 10 sec on ice by a ultrasound homogenizer (HD 2070, Bandelin electronic), freeze-thawed three times, sonicated for 10 sec and centrifuged at 14,000 g for 10 min to remove cellular debris. An aliquot of the supernatant (40-200 μl) was diluted to 3 ml with the o-dianisidine 2HCl/H2O2 solution. The change in absorbance at 460 nm was continuously monitored for 5 min by a spectrophotometer (UV/Vis Spectrometer Lambda EZ 201; Perkin Elmer). The slope of the line (Δ/min) was determined for each sample and used to calculate the number of units of MPO in the tissue as follows:
Values were expressed as units of MPO/g of tissue.
as §2

[6] = 5 min before the first paracentesis, raw data per eye
[7] = 5 min before the second paracentesis, raw data per eye

For `CCOC(=O)O[C@]1(C(=O)OCCl)CC[C@H]2[C@@H]3CCC4=CC(=O)C=C[C@]4(C)[C@H]3[C@@H](O)C[C@@]21C` [LE, loteprednol etabonate], which “Pupillary diameter T2: −5 min” value (pupillary diameter; [6]) is on record?
The value was 6.0 mm and 6.5 mm.

And the “Pupillary diameter T3: +115 min” value (pupillary diameter; [7])?
Its value is 4.5 mm and 5.0 mm and 5.5 mm and 6.0 mm.

And the “Pupillary diameter T1: −180 min” value (pupillary diameter; basal, raw data per eye)?
Its value is 6.0 mm and 6.5 mm.

And the “Mean (mm) Δ(T3 − T1) of pupillary diameter” value (pupillary diameter; group mean, n=8 eyes)?
Its value is −0.9 mm.

What about the “Clinical Score −5 min” value [1, 6] of the same compound?
Its value is 0.

What about the “Clinical Score +115 min” value [1, 7] of the same compound?
Its value is 2 and 1.

What about the “Percentage of eyes with clinical score 1” value ([1]; +115 min, N=8 eyes) of the same compound?
The value was 75%.

And the “Percentage of eyes with clinical score 2” value ([1]; +115 min, N=8 eyes)?
The value was 25%.

What about the “Clinical Score −180 min” value ([1]; basal, raw data per eye) of the same compound?
The value was 0.

And the “Clinical score, difference versus CTR (vehicle)” value ([1]; p<0.05, Kruskal-Wallis, Dunn)?
The value was “significant difference versus CTR”.

And the “Percentage of eyes with clinical score 0” value ([1]; −5 min, N=8 eyes)?
The value was 100%.

And the “Percentage of eyes with clinical score 0” value ([1]; −180 min (basal), N=8 eyes)?
The value was 100%.

And the “PGE2 in aqueous humor, statistical significance versus CTR” value ([2]; p<0.05)?
Its value is “statistically significant versus CTR”.

What about the “PGE2 level in aqueous humor, Mean” value ([2]; second paracentesis, group mean) of the same compound?
Its value is 0.672 ng/mL.

What about the “Protein level in aqueous humor, Mean” value ([3]; group mean) of the same compound?
The value was 33.905 mg/mL.

And the “Protein level in aqueous humor, raw data” value ([3]; per eye)?
The value was 36.14 mg/mL and 39.10 mg/mL and 34.69 mg/mL and 26.10 mg/mL and 26.30 mg/mL and 28.16 mg/mL and 40.90 mg/mL and 39.85 mg/mL.

And the “PMN numbers in aqueous humor, Mean” value [4]?
Its value is 28.333 number/μl.

What about the “MPO activity in iris-ciliary body” value ([5]; 0.5% LE, individual samples collected after the second paracentesis) of the same compound?
The value was 1.01 Unit/g.

And the “MPO activity in iris-ciliary body, Mean” value ([5]; 0.5% formulation, after the second paracentesis, group mean)?
The value was 0.661 MPO Unit/g.

— patent publication US20120316199A1, “COMPOSITIONS AND METHODS FOR TREATING, CONTROLLING, REDUCING, OR AMELIORATING INFLAMMATORY PAIN” (priority 2011, published 2012)
